According to patent US20250195530A1, “POLQ INHIBITORS” (ASTRAZENECA AB, priority 2022, published 2025):
Read-outs that look alike come from different tables or passages of the source.

Test system: DLD-1 BRCA2−/− cells
Assay: Homologous recombination synthetic lethal inhibition of proliferation, DLD-1 BRCA2-/- (Cell Titre Glo 3D)
Format: cell-based
Conditions: for IC50: Homo sapiens
Summary of the method: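 DLD-1 BRCA2−/− and parental DLD-1 cells exposed to 10-point dose range (10 μM to 0.51 nM, 3-fold) in RPMI/10% FBS at 37 °C, with medium and compound replenished on day 6. Viability by Cell Titre Glo 3D luminescence at day 7 (DLD-1) or day 12 (BRCA2−/−); IC50 as concentration halving maximum signal.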

[1] = DLD-1, first proliferation column (c5), DLD-1 BRCA2-/-, read-out: POLQ PD Prolif Lumin (converted)
[2] = DLD-1, DLD-1 BRCA2-/- proliferation, column head only partly shown, read-out: POLQ PD Prolif Lumin (converted)
[3] = DLD-1, DLD-1 BRCA2 −/− cells, mean, read-out: POLQ PD Prolif Lumin BRCA2 −/− mean pIC50 (converted)
[4] = DLD-1, first proliferation column, DLD-1 BRCA2-/-, read-out: POLQ PD Prolif Lumin (converted)
[5] = DLD-1, first proliferation column (c5), taken as DLD-1 BRCA2-/-, read-out: POLQ PD Prolif Lumin (converted)
[6] = DLD-1, proliferation, luminescence, taken as DLD-1 BRCA2-/-, read-out: POLQ PD Prolif Lumin (converted)
[7] = DLD-1, DLD-1 BRCA2 −/−, mean, read-out: POLQ PD Prolif Lumin BRCA2 −/− mean pIC50 (converted)

`CC1(Oc2ncnc3c2nc(-c2cccc(OCCOCC(=O)O)c2Cl)n3Cc2cccc(Cl)c2)CC1` [Example T162, 2-(2-(2-chloro-3-(9-(3-chlorobenzyl)-6-(1-methylcyclopropoxy)-9H-purin-8-yl)phenoxy)ethoxy)acetic acid] was tested, and the IC50 [1] was 126 nM.
For `CCC(C)c1ccc(-c2nc3c(OC4(C)CC4)ncnc3n2Cc2cc(C)ccn2)c(Cl)c1` (racemic) [Example T232, 8-(4-(sec-butyl)-2-chlorophenyl)-6-(1-methylcyclopropoxy)-9-((4-methylpyridin-2-yl)methyl)-9H-purine], the IC50 [2] was > 1580 nM.
Compound `Cc1ccnc(Cn2c(-c3ccc(N4CCOC4=O)cc3Cl)nc3c(OC4(C)CC4)ncnc32)c1` [Example T96, 3-(3-chloro-4-(6-(1-methylcyclopropoxy)-9-((4-methylpyridin-2-yl)methyl)-9H-purin-8-yl)phenyl)oxazolidin-2-one] has an IC50 [3] of 100 nM.
Work on `CO[C@H]1CCN(C(=O)COc2ccc(-c3nc4c(OC5(C)CC5)ncnc4n3Cc3cc(C)ccn3)c(Cl)c2)C1` [Example T577, (S)-2-(3-chloro-4-(6-(1-methylcyclopropoxy)-9-((4-methylpyridin-2-yl)methyl)-9H-purin-8-yl)phenoxy)-1-(3-methoxypyrrolidin-1-yl)ethan-1-one] yielded an IC50 [4] of 398 nM.
In the case of `CC1(Oc2ncnc3c2nc(-c2cccc(O[C@H]4C[C@H](C(=O)O)C4)c2Cl)n3Cc2cccc(Cl)c2)CC1` [Example T256, (1r,3r)-3-(2-chloro-3-(9-(3-chlorobenzyl)-6-(1-methylcyclopropoxy)-9H-purin-8-yl)phenoxy)cyclobutane-1-carboxylic acid], the “POLQ PD Prolif Lumin” value (DLD-1 BRCA2-/- proliferation, column head only partly shown) is reported as 6.9.
Compound `CC(CCOc1ccc(-c2nc3c(OC4(C)CC4)ncnc3n2Cc2cccc(C3CC3)c2)c(Cl)c1)C(=O)O` (racemic) [Example T601, 4-(3-chloro-4-(9-(3-cyclopropylbenzyl)-6-(1-methylcyclopropoxy)-9H-purin-8-yl)phenoxy)-2-methylbutanoic acid] has an IC50 [4] of 794 nM.
`Cc1ccnc(Cn2c(-c3ccc(OCC(=O)NCCCO)cc3Cl)nc3c(OC4(C)CC4)ncnc32)c1` [Example T373, 2-(3-chloro-4-(6-(1-methylcyclopropoxy)-9-((4-methylpyridin-2-yl)methyl)-9H-purin-8-yl)phenoxy)-N-(3-hydroxypropyl)acetamide] was tested, and the IC50 [5] was 316 nM.
For `Cc1ccnc(Cn2c(-c3ccc(OCC(=O)NC4COC4)cc3Cl)nc3c(OC4(C)CC4)ncnc32)c1` [Example T323, 2-(3-chloro-4-(6-(1-methylcyclopropoxy)-9-((4-methylpyridin-2-yl)methyl)-9H-purin-8-yl)phenoxy)-N-(oxetan-3-yl)acetamide], the IC50 [5] was 200 nM.
With `CC1(Oc2ncnc3c2nc(-c2cccc(OCCC(C)(C)C(=O)O)c2Cl)n3Cc2cccc(Cl)c2)CC1` [Example T442, 4-(2-chloro-3-(9-(3-chlorobenzyl)-6-(1-methylcyclopropoxy)-9H-purin-8-yl)phenoxy)-2,2-dimethylbutanoic acid] the IC50 [6] was 79.4 nM.
`CC(CCCOc1ccc(-c2nc3c(OC4(C)CC4)ncnc3n2Cc2cccc(Cl)c2)c(Cl)c1)C(=O)O` (single isomer, unassigned) [Example T438, 5-(3-chloro-4-(9-(3-chlorobenzyl)-6-(1-methylcyclopropoxy)-9H-purin-8-yl)phenoxy)-2-methylpentanoic acid] was tested, and the IC50 [6] was 126 nM.
For `Cc1ccnc(Cn2c(-c3ccc(OCCN4CCC4=O)cc3Cl)nc3c(OC4(C)CC4)ncnc32)c1` [Example T313, 1-(2-(3-chloro-4-(6-(1-methylcyclopropoxy)-9-((4-methylpyridin-2-yl)methyl)-9H-purin-8-yl)phenoxy)ethyl)azetidin-2-one], the IC50 [5] was 200 nM.
For `Cc1ccnc(Cn2c(-c3ccc(C(=O)N4CCNC(=O)C4)cc3Cl)nc3c(OC4(C)CC4)ncnc32)c1` [Example T287, 4-(3-chloro-4-(6-(1-methylcyclopropoxy)-9-((4-methylpyridin-2-yl)methyl)-9H-purin-8-yl)benzoyl)piperazin-2-one], the IC50 [2] was > 7940 nM.
In the case of `Cc1cnnc(Cn2c(-c3ccc(CC(N)=O)cc3Cl)nc3c(OC4(C)CC4)ncnc32)c1` [Example T18, 2-(3-chloro-4-(6-(1-methylcyclopropoxy)-9-((5-methylpyridazin-3-yl)methyl)-9H-purin-8-yl)phenyl)acetamide], the IC50 [3] is reported as > 10000 nM.
For `Cc1ccccc1Cn1c(-c2ccc(OCCC(=O)O)cc2Cl)nc2c(OC3(C)CC3)ncnc21` [Example T168, 3-(3-chloro-4-(9-(2-methylbenzyl)-6-(1-methylcyclopropoxy)-9H-purin-8-yl)phenoxy)propanoic acid], the IC50 [1] was 1260 nM.
For `CC1(Oc2ncnc3c2nc(-c2ccc(CC(N)=O)cc2Cl)n3CCc2nccs2)CC1` [Example T7, 2-(3-chloro-4-(6-(1-methylcyclopropoxy)-9-(2-(thiazol-2-yl)ethyl)-9H-purin-8-yl)phenyl)acetamide], the IC50 [3] was > 10000 nM.
`Cc1ccnc(Cn2c(-c3ccc(CCNS(C)(=O)=O)cc3Cl)nc3c(OC4(C)CC4)ncnc32)c1` [Example T143, N-(3-chloro-4-(6-(1-methylcyclopropoxy)-9-((4-methylpyridin-2-yl)methyl)-9H-purin-8-yl)phenethyl)methanesulfonamide] gave an IC50 [1] of 398 nM.
Compound `CC1(Oc2ncnc3c2nc(-c2ccc(NCCC(=O)O)cc2Cl)n3Cc2cccc(Cl)c2)CC1` [Example T97, 3-((3-chloro-4-(9-(3-chlorobenzyl)-6-(1-methylcyclopropoxy)-9H-purin-8-yl)phenyl)amino)propanoic acid] has an IC50 [3] of 1260 nM.
`CC1(Oc2ncnc3c2nc(-c2ccc(OCCOCCC(=O)O)cc2Cl)n3Cc2cccc(Cl)c2)CC1` [Example T303, 3-(2-(3-chloro-4-(9-(3-chlorobenzyl)-6-(1-methylcyclopropoxy)-9H-purin-8-yl)phenoxy)ethoxy)propanoic acid] gave an IC50 [5] of 126 nM.
`CC1(Oc2ncnc3c2nc(-c2cccc(OCCC(=O)O)c2Cl)n3Cc2cc(Cl)ccc2F)CC1` [Example U32, 3-(2-chloro-3-(9-(5-chloro-2-fluorobenzyl)-6-(1-methylcyclopropoxy)-9H-purin-8-yl)phenoxy)propanoic acid] showed an IC50 [7] of 39.8 nM.
Work on `CC1(Oc2ncnc3c2nc(-c2ccc(C(=O)O)cc2Cl)n3Cc2cccc(Cl)c2)CC1` [Example T11, 3-chloro-4-(9-(3-chlorobenzyl)-6-(1-methylcyclopropoxy)-9H-purin-8-yl)benzoic acid] yielded an IC50 [3] of 794 nM.
`Cc1ccnc(Cn2c(-c3cc(CC(N)=O)ccc3Cl)nc3c(OC4(C)CC4)ncnc32)c1` [Example T57, 2-(4-chloro-3-(6-(1-methylcyclopropoxy)-9-((4-methylpyridin-2-yl)methyl)-9H-purin-8-yl)phenyl)acetamide] was tested, and the IC50 [3] was > 10000 nM.
`Cc1ccnc(Cn2c(-c3ccc(O[C@H]4CCN(C(=O)CO)C4)cc3Cl)nc3c(OC4(C)CC4)ncnc32)c1` [Example T483, (S)-1-(3-(3-chloro-4-(6-(1-methylcyclopropoxy)-9-((4-methylpyridin-2-yl)methyl)-9H-purin-8-yl)phenoxy)pyrrolidin-1-yl)-2-hydroxyethan-1-one] showed an IC50 [1] of 631 nM.
For `Cc1ccnc(Cn2c(-c3ccc(C(=O)NC(C)C)cc3Cl)nc3c(OC4(C)CC4)ncnc32)c1` [Example T211, 3-chloro-N-isopropyl-4-(6-(1-methylcyclopropoxy)-9-((4-methylpyridin-2-yl)methyl)-9H-purin-8-yl)benzamide], the IC50 [2] was 501 nM.
In the case of `CC(COc1cccc(-c2nc3c(OC4(C)CC4)ncnc3n2Cc2cc(Cl)ccc2F)c1Cl)CC(=O)O` (single isomer, unassigned) [Example U34, 4-(2-chloro-3-(9-(5-chloro-2-fluorobenzyl)-6-(1-methylcyclopropoxy)-9H-purin-8-yl)phenoxy)-3-methylbutanoic acid], the “POLQ PD Prolif Lumin BRCA2 −/− mean pIC50” value (DLD-1 BRCA2 −/−, mean) is reported as 7.5.
With `Cc1ccnc(Cn2c(-c3ccc(CC(=O)NCCO)cc3Cl)nc3c(OC4(C)CC4)ncnc32)c1` [Example T224, 2-(3-chloro-4-(6-(1-methylcyclopropoxy)-9-((4-methylpyridin-2-yl)methyl)-9H-purin-8-yl)phenyl)-N-(2-hydroxyethyl)acetamide] the IC50 [2] was 1000 nM.
Compound `COc1ccccc1Cn1c(-c2ccc(OCCC(C)C(=O)O)cc2Cl)nc2c(OC3(C)CC3)ncnc21` (racemic) [Example U4, 4-(3-chloro-4-(9-(2-methoxybenzyl)-6-(1-methylcyclopropoxy)-9H-purin-8-yl)phenoxy)-2-methylbutanoic acid] has an IC50 [7] of 251 nM.
`Cc1ccnc(Cn2c(-c3ccc(OCCCO)cc3Cl)nc3c(OC4(C)CC4)ncnc32)c1` [Example T124, 3-(3-chloro-4-(6-(1-methylcyclopropoxy)-9-((4-methylpyridin-2-yl)methyl)-9H-purin-8-yl)phenoxy)propan-1-ol] showed an IC50 [1] of 79.4 nM.
Work on `Cc1nc(Cn2c(-c3ccc(CC(N)=O)cc3Cl)nc3c(OC4(C)CC4)ncnc32)sc1C` [Example T24, 2-(3-chloro-4-(9-((4,5-dimethylthiazol-2-yl)methyl)-6-(1-methylcyclopropoxy)-9H-purin-8-yl)phenyl)acetamide] yielded an IC50 [3] of 794 nM.
Work on `Cc1ccnc(Cn2c(-c3ccc(CC(=O)N4CC5(CCN5)C4)cc3Cl)nc3c(OC4(C)CC4)ncnc32)c1` [Example T556, 2-(3-chloro-4-(6-(1-methylcyclopropoxy)-9-((4-methylpyridin-2-yl)methyl)-9H-purin-8-yl)phenyl)-1-(1,6-diazaspiro[3.3]heptan-6-yl)ethan-1-one] yielded an IC50 [1] of 6310 nM.
